In brackets after ≈: the same amount, converted by molar mass. Activity calls are given as the source filed them. The calls are words filed in the database; no cut-off is given here.
Assays:
[1] = (§1) Toxicity against Artemia salina; format: organism-based; settings: in vivo
P388 = experiment: Antitumor activity against mouse P388 cells; format: functional, cell-based
Lymphocyte = experiment: Immunosuppressive activity against lymphocyte by mixed lymphocyte reaction assay; format: functional, cell-based
Artemia salina = experiment: as §1; format: organism-based; settings: in vivo

Structure (SMILES) | LC50 [1] [µg/mL] | Activity (P388) | Activity (Lymphocyte) | Activity (Artemia salina)
C#C[C@H](O)CCCCCCCCCCCCC(C)CCCC (some centres undefined) | 1.2 (≈ 3.89 µM) |  |  | 
C#C[C@H](O)/C=C/CCCCCCCCCCC(C)CCCC (some centres undefined) | 0.8 (≈ 2.61 µM) | Active | Active | 
C#C[C@H](O)/C=C/CCCCCCCCCCCCCC(C)C | 0.8 (≈ 2.61 µM) | Active | Active | 
C#CC(O)/C=C/CCCCCCCCCCCCCCC (centres undefined) |  | Active | Active | Toxic
C#CC(O)/C=C/CCCCCCCCC/C=C/CCCCC(C)C (centres undefined) |  | Active | Active | Toxic
C#C[C@H](O)CCCCCCCCCCCCCCCC(C)C | 1 (≈ 3.24 µM) |  |  | 
C#C/C=C/CCCCCCCCCC/C=C\CCCCCC | 1.1 (≈ 3.64 µM) |  |  | 
C#C[C@H](O)/C=C/CCCCCCCCC(C)CCCCCCCC (some centres undefined) | 0.03 (≈ 0.0897 µM) |  |  | 
C#C[C@H](O)/C=C/CCCCCCCCC/C=C/CCCCCC | 0.4 (≈ 1.26 µM) | Active | Active | 

— ChEMBL document CHEMBL1149741, “Further bioactive acetylenic compounds from the Caribbean sponge Cribrochalina vasculum” (J Nat Prod, 1992)
